Here are results for 41 molecules from ChEMBL document CHEMBL1140236, “Aminoalkoxybenzyl pyrrolidines as novel human urotensin-II receptor antagonists” (Bioorg Med Chem Lett, 2005).

Structures are written as SMILES.

In general, IC50 refers to the concentration at which inhibition is half-maximal. The Ki is the equilibrium dissociation constant of an inhibitor or competing ligand from its target.

One assay concerns the target T1, Urotensin-2 receptor (Homo sapiens, UniProt Q9UKP6).
T1 sequence (Q9UKP6 whole entry): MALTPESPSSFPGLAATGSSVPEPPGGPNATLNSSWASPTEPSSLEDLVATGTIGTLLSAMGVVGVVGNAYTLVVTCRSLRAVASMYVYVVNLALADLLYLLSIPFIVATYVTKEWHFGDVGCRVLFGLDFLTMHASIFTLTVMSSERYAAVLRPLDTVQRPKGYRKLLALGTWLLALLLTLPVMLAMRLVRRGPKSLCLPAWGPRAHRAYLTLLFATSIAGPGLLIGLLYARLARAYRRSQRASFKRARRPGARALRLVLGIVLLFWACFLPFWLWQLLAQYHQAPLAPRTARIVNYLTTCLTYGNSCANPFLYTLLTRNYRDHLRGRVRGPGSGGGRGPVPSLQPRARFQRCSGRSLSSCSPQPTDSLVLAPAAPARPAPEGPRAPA
Kind of assay: (§1) Inhibition of hU-II-mediated [Ca2+]i mobilization in HEK293 cells expressing human recombinant Urotensin 2 receptor in FLIPR assay. In kind it is cell-based.
As to `CN(C)CCCOc1ccc(CN2CC[C@H](NC(=O)c3ccc(Cl)c(Cl)c3)C2)cc1`, the 50% inhibitory concentration (IC50) was 158 nM.

For a further assay, the target named is T1, Urotensin-2 receptor. The assay is described as §1. In kind it is functional, cell-based.
Turning to `CC(C)C[C@H](NC(=O)c1cc2ccccc2s1)C(=O)NC1CCN(Cc2ccc(OCCCN(C)C)cc2)C1` (single isomer, unassigned; 2a), the IC50 is 631 nM.

Another assay deals with T2, Urotensin-2 receptor (Rattus norvegicus, UniProt P49684).
T2 sequence (P49684 whole entry): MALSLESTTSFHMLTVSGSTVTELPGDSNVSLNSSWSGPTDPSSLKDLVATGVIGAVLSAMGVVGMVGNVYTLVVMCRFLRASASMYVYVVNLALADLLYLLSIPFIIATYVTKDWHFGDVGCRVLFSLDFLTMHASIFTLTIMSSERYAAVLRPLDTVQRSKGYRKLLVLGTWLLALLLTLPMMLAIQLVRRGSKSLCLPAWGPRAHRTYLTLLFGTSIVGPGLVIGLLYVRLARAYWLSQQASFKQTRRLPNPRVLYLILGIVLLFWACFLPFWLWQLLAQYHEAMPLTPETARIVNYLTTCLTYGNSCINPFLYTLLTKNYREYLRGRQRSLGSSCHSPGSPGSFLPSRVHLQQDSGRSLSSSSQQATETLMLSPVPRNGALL
Kind of assay: Binding affinity for rat urotensin-2 receptor.
The molecule `CN(C)CCCOc1ccc(CN2CC[C@H](NC(=O)c3ccc(Cl)c(Cl)c3)C2)cc1` had a Ki of 3160 nM.

A further assay has as its target T3, Urotensin-2 receptor (Macaca mulatta, UniProt Q8HYC3).
T3 sequence (Q8HYC3 whole entry): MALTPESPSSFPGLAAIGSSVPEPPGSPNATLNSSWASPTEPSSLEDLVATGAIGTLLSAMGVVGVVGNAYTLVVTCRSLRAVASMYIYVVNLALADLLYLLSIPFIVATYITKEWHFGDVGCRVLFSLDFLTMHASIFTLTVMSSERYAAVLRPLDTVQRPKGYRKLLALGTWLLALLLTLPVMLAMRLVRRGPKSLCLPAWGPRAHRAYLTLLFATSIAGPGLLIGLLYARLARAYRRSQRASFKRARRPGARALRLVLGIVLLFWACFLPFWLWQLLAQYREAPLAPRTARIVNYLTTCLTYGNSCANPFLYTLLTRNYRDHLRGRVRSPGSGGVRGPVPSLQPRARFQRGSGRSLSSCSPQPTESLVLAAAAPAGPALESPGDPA
Description: Binding affinity for monkey urotensin-2 receptor.
Molecule `CN(C)CCCOc1ccc(CN2CC[C@H](NC(=O)c3ccc(Cl)c(Cl)c3)C2)cc1` showed a Ki of 251 nM.

Another assay addresses T1, Urotensin-2 receptor. Description: Binding affinity using [125I]hU-II radioligand binding assay in HEK293 cell membranes expressing human Urotensin 2 receptor.
As to `CN(C)CCCOc1ccc(CN2CC[C@H](NC(=O)c3ccc4c(c3)OCO4)C2)cc1`, the inhibition constant Ki was 2510 nM.

Consider `CC(C)[C@H](NC(=O)c1ccc(Cl)c(Cl)c1)C(=O)N[C@H]1CCN(Cc2ccc(OCCCN(C)C)cc2)C1`, for which the inhibition constant (Ki) is 794 nM.

For `CN(C)CCCOc1ccc(CN2CC[C@H](NC(=O)c3ccncc3)C2)cc1`, the Ki is more than 10000 nM.

As for `CN(C)CCCOc1ccc(CN2CC[C@H](NC(=O)c3cc(Cl)cc(Cl)c3)C2)cc1`, the affinity, expressed as Ki, was 2000 nM.

The molecule `CN(C)CCCOc1ccc(CN2CC[C@H](NC(=O)c3ccco3)C2)cc1` showed a Ki of more than 10000 nM.

The molecule `COc1ccc(C(=O)N[C@H]2CCN(Cc3ccc(OCCCN(C)C)cc3)C2)cc1OC` gave a Ki of more than 10000 nM.

As to `CN(C)CCCOc1ccc(CN2CC[C@H](NC(=O)c3ccc(-c4ccccc4)cc3)C2)cc1`, the inhibition constant Ki is more than 10000 nM.

Regarding `CC(C)C[C@H](NC(=O)Nc1ccccc1)C(=O)N[C@H]1CCN(Cc2ccc(OCCCN(C)C)cc2)C1`, the inhibition constant Ki is 1000 nM.

`CC(=O)N[C@H]1CCN(Cc2ccc(OCCCN(C)C)cc2)C1` had an inhibitory constant (Ki) of more than 10000 nM.

As for `CC(C)C[C@H](NC(=O)c1cc2ccccc2[nH]1)C(=O)N[C@H]1CCN(Cc2ccc(OCCCN(C)C)cc2)C1`, affinity was put at a Ki of 501 nM.

Regarding `CC(C)C[C@H](NC(=O)c1ccc(Br)cc1)C(=O)N[C@H]1CCN(Cc2ccc(OCCCN(C)C)cc2)C1`, the Ki was 200 nM.

For `CN(C)CCCOc1ccc(CN2CC[C@H](NC(=O)CNC(=O)c3ccc(Cl)c(Cl)c3)C2)cc1`, the Ki is more than 10000 nM.

The molecule `Cc1ccc(C(=O)N[C@H]2CCN(Cc3ccc(OCCCN(C)C)cc3)C2)cc1C` showed a Ki of more than 10000 nM.

On to `CC(C)C[C@H](NC(=O)c1ccc(Cl)c(Cl)c1)C(=O)N[C@H]1CCN(Cc2ccc(OCCCN(C)C)cc2)C1`, for which the affinity, expressed as Ki, was 126 nM.

In turn, `CC(C)C[C@H](NC(=O)c1ccc2c(c1)OCO2)C(=O)N[C@H]1CCN(Cc2ccc(OCCCN(C)C)cc2)C1` gave a Ki of 501 nM.

The molecule `CN(C)CCCOc1ccc(CN2CC[C@H](NC(=O)c3cccs3)C2)cc1` gave an inhibition constant (Ki) of more than 10000 nM.

`CN(C)CCCOc1ccc(CN2CC[C@H](NC(=O)c3ccc(C(F)(F)F)cc3)C2)cc1` showed a Ki of more than 10000 nM.

Regarding `CN(C)CCCOc1ccc(CN2CC[C@H](NC(=O)c3ccc(C#N)cc3)C2)cc1`, the Ki is more than 10000 nM.

`CC(C)C[C@H](NC(=O)c1ccc2ccccc2n1)C(=O)N[C@H]1CCN(Cc2ccc(OCCCN(C)C)cc2)C1` showed a Ki of 631 nM.

In the case of `CC(C)C[C@H](NC(=O)Cc1ccc2c(c1)OCO2)C(=O)N[C@H]1CCN(Cc2ccc(OCCCN(C)C)cc2)C1`, the Ki was 398 nM.

Turning to `Cc1cc(C(=O)N[C@H]2CCN(Cc3ccc(OCCCN(C)C)cc3)C2)ccc1Cl`, the affinity, expressed as Ki, was 631 nM.

In the case of `CN(C)CCCOc1ccc(CN2CC[C@H](NC(=O)c3ccc4ccccc4c3)C2)cc1`, the inhibitory constant (Ki) is more than 10000 nM.

The molecule `CN(C)CCCOc1ccc(CN2CC[C@H](NC(=O)c3ccc(Br)cc3)C2)cc1` gave an inhibition constant Ki of 316 nM.

In turn, `Cc1cc(C(=O)N[C@H]2CCN(Cc3ccc(OCCCN(C)C)cc3)C2)ccc1Br` had an inhibition constant Ki of 631 nM.

Turning to `CC(C)C[C@H](NC(=O)c1ccccc1)C(=O)N[C@H]1CCN(Cc2ccc(OCCCN(C)C)cc2)C1`, the Ki was 501 nM.

`CC(C)C[C@H](NC(=O)c1cccs1)C(=O)N[C@H]1CCN(Cc2ccc(OCCCN(C)C)cc2)C1` had a Ki of 398 nM.

`CN(C)CCCOc1ccc(CN2CC[C@H](NC(=O)c3ccc(Cl)c(Cl)c3)C2)cc1` gave a Ki of 200 nM.

In the case of `CN(C)CCCOc1ccc(CN2CC[C@H](NC(=O)[C@H](CCC(=O)O)NC(=O)c3ccc(Cl)c(Cl)c3)C2)cc1`, the Ki is more than 10000 nM.

In turn, `CN(C)CCCOc1ccc(CN2CC[C@H](NC(=O)[C@H](Cc3ccccc3)NC(=O)c3ccc(Cl)c(Cl)c3)C2)cc1` had an inhibition constant (Ki) of 398 nM.

`CN(C)CCCOc1ccc(CN2CC[C@H](NC(=O)[C@H](CCCCN)NC(=O)c3ccc(Cl)c(Cl)c3)C2)cc1` gave a Ki of more than 10000 nM.

`CC(C)C[C@H](NC(=O)Oc1ccccc1)C(=O)N[C@H]1CCN(Cc2ccc(OCCCN(C)C)cc2)C1` had a Ki of 251 nM.

Regarding `CC(C)C[C@H](NC(=O)c1ccco1)C(=O)N[C@H]1CCN(Cc2ccc(OCCCN(C)C)cc2)C1`, affinity was put at a Ki of 631 nM.

Regarding `CN(C)CCCOc1ccc(CN2CC[C@H](NC(=O)c3ccccc3)C2)cc1`, the affinity corresponds to a Ki of 2510 nM.

In turn, `CC(=O)N[C@@H](CC(C)C)C(=O)N[C@H]1CCN(Cc2ccc(OCCCN(C)C)cc2)C1` had an inhibitory constant (Ki) of 2510 nM.

Regarding `CN(C)CCCOc1ccc(CN2CC[C@H](NC(=O)c3cc4ccccc4o3)C2)cc1`, the inhibitory constant (Ki) was 2510 nM.

The molecule `CC(C)C[C@H](NC(=O)c1ccncc1)C(=O)N[C@H]1CCN(Cc2ccc(OCCCN(C)C)cc2)C1` had an inhibition constant (Ki) of 2000 nM.

For the molecule `CC(C)C[C@@H](NC(=O)c1cc2ccccc2o1)C(=O)NC1CCN(Cc2ccc(OCCCN(C)C)cc2)C1` (single isomer, unassigned), the inhibition constant Ki is 3160 nM.

`CC(C)C[C@H](NC(=O)c1cc2ccccc2s1)C(=O)NC1CCN(Cc2ccc(OCCCN(C)C)cc2)C1` (single isomer, unassigned; 2a) had a Ki of 126 nM.

Regarding `CC(C)C[C@H](NC(=O)c1cc2ccccc2s1)C(=O)NC1CCN(Cc2ccc(OCCCN(C)C)cc2)C1` (single isomer, unassigned; 2b), the inhibition constant Ki was more than 10000 nM.

Molecule `CC(C)C[C@H](NC(=O)c1cc2ccccc2o1)C(=O)NC1CCN(Cc2ccc(OCCCN(C)C)cc2)C1` (single isomer, unassigned; 2c) showed a Ki of 158 nM.

Regarding `CC(C)C[C@H](NC(=O)c1cc2ccccc2o1)C(=O)NC1CCN(Cc2ccc(OCCCN(C)C)cc2)C1` (single isomer, unassigned; 2d), the Ki is more than 10000 nM.
